Assay [1] addresses human A2a adenosine receptor (Homo sapiens (Human), UniProt P29274). The assay is described as follows: A2a receptor affinity radioligand binding assay ([3H] SCH58261). Particulars: membranes from HEK293 or CHO cells expressing human A2a receptor. In short, it runs like this:
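Membranes from HEK293 or CHO cells expressing human A2a were preincubated 15–30 min at room temperature with compound, then incubated 60 min at room temperature with [3H]SCH58261 (diluted to 4 nM) in 50 mM Tris pH 7.4, 10 mM MgCl2, 0.005% Tween20. Bound radioactivity was collected by filtration; nonspecific binding defined with 1 μM ZM241385; IC50 from 4-parameter logistic fit.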

Assay [2] concerns the target human A2b adenosine receptor (Homo sapiens (Human), UniProt P29275). Kind of assay: A2b radioligand filtration binding assay. The settings on record: membranes from HEK293 cells expressing human A2b receptor. In short, it runs like this:
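Membranes from HEK293 cells expressing human A2b receptor preincubated with compound 15 to 30 min at room temperature, then tritiated proprietary A2b antagonist (diluted to 14 nM before addition) added in PBS pH 7.4 for 60 min at room temperature. Bound radioactivity by filtration and scintillation; non-specific binding with 20 μM NECA; IC50 by 4-parameter logistic fit.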

The structures appear in SMILES notation.

Chain of human A2a adenosine receptor (P29274 whole entry): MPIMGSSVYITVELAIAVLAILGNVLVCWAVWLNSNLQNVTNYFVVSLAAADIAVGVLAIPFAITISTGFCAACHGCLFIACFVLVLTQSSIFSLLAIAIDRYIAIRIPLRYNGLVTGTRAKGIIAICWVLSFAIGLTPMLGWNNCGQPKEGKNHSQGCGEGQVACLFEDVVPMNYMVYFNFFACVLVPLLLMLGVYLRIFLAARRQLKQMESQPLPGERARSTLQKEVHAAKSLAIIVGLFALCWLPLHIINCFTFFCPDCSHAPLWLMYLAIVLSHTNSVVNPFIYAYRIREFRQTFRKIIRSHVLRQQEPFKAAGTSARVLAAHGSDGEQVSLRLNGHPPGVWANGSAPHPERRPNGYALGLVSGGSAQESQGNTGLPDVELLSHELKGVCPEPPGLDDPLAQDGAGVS
Chain of human A2b adenosine receptor (P29275 whole entry): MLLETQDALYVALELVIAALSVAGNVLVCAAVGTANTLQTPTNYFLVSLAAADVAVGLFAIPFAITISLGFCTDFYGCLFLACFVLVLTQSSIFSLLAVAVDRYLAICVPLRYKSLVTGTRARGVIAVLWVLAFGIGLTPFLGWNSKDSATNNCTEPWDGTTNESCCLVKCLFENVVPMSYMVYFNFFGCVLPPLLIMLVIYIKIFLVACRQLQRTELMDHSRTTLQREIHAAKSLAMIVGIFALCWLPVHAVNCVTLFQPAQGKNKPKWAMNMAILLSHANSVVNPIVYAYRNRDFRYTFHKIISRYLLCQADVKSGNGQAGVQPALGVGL

`COc1cc(F)cc2c1nc(N)n1nc([C@@H]3CCCN(c4cnn(CC5(O)CCC5)c4)C3)nc21` [Example 31, (R)-1-((4-(3-(5-amino-9-fluoro-7-methoxy-[1,2,4]triazolo [1,5-c]quinazolin-2-yl)piperidin-l-yl)-1H-pyrazol-1-yl)methyl)cyclobutan-1-ol]: the values for the IC50 in assay [1] and in assay [2] were 1.7 nM and 94.8 nM, respectively.
On the same counts, the results for `COc1cc(F)cc2c1nc(N)n1nc([C@@H]3CCCN(c4cnn(C(C)(C)CO)c4)C3)nc21` [Example 32, (R)-2-(4-(3-(5-amino-9-fluoro-7-methoxy-[1,2,4]triazolo[1,5-c]quinazolin-2-yl)piperidin-1-yl)-1H-pyrazol-1-yl)-2-methylpropan-1-ol] are 0.5 nM and 6.9 nM.
On the same counts, the results for `COc1cc(F)cc2c1nc(N)n1nc([C@@H]3CCCN(c4ccc(OC(F)F)nc4)C3)nc21` [Example 33, (R)-2-(1-(6-(difluoromethoxy)pyridin-3-yl)piperidin-3-yl)-9-fluoro-7-methoxy-[1,2,4]triazolo[1,5-c]quinazolin-5-amine] are 3.6 nM and 17.5 nM.
Taken in the same sequence, the figures for `COc1ccc(N2CCC[C@@H](c3nc4c5cc(F)cc(OC)c5nc(N)n4n3)C2)cn1` [Example 34, (R)-9-fluoro-7-methoxy-2-(1-(6-methoxypyridin-3-yl)piperidin-3-yl)-[1,2,4]triazolo[1,5-c]quinazolin-5-amine] were 1.4 nM and 29.7 nM.
`COc1cc(F)cc2c1nc(N)n1nc([C@@H]3CCCN(c4ccc(OC(C)C)nc4)C3)nc21` [Example 35, (R)-9-fluoro-2-(1-(6-isopropoxypyridin-3-yl)piperidin-3-yl)-7-methoxy-[1,2,4]triazolo[1,5-c]quinazolin-5-amine]: the results for the IC50 in assay [1] and in assay [2] were 0.6 nM and 12.2 nM, respectively.
With `COc1cc(F)cc2c1nc(N)n1nc([C@@H]3CCCN(c4ncn(CC(C)(C)O)n4)C3)nc21` [Example 36, (R)-1-(3-(3-(5-amino-9-fluoro-7-methoxy-[1,2,4]triazolo[1,5-c]quinazolin-2-yl)piperidin-1-yl)-1H-1,2,4-triazol-1-yl)-2-methylpropan-2-ol], the values for the IC50 in assay [1] and in assay [2] were 1.6 nM and 93 nM, respectively.
In the case of `COc1cc(F)cc2c1nc(N)n1nc([C@@H]3CCCN(c4nc(C)n(CC(C)(C)O)n4)C3)nc21` [Example 37, (R)-1-(3-(3-(5-amino-9-fluoro-7-methoxy-[1,2,4]trazolo[1,5-c]quinazolin-2-yl)piperidin-1-yl)-5-methyl-1H-1,2,4-triazol-1-yl)-2-methylpropan-2-ol], the IC50 was 1.1 nM in assay [1] and 468 nM in assay [2].
Taken in the same sequence, the figures for `COc1cc2nc(N)n3nc([C@@H]4CCN(c5cnn(CC6(O)CCC6)c5)C4)nc3c2cc1F` [Example 38, (R)-1((4-(3-(5-amino-9-fluoro-8-methoxy-[1,2,4]triazolo[1,5-c]quinazolin-2-yl)prrolidin-l-yl)-1H-pyrazol-1-yl)methyl)cyclobutan-1-ol] were 16.9 nM and 182 nM.
On the same counts, the results for `COc1cc2nc(N)n3nc(C4CCC(C)N(c5cnn(CC(C)(C)O)c5C)C4)nc3c2cc1F` [Example 52, 1-(4-((2R,5S, or 2S,5R)-5-(5-amino-9-fluoro-8-methoxy-[1,2,4]triazolo[1,5-c]quinazolin-2-yl)-2-methylpiperidin-1-yl)-5-methyl-1H-pyrazol-1-yl)-2-methylpropan-2-ol] are 18.3 nM and 3010 nM.
On the same counts, the results for `COc1cc2nc(N)n3nc(C4CCC(C)N(c5cn(CC(C)(C)O)nc5C)C4)nc3c2cc1F` [Example 53, 1-(4-((2R,5S, or 2S,5R)-5-(5-amino-9-fluoro-8-methoxy-[1,2,4]triazolo[1,5-c]quinazolin-2-yl)-2-methylpiperidin-1-yl)-3-methyl-1H-pyrazol-1-yl)-2-methylpropan-2-ol] are 44.1 nM and 4240 nM.
For the compound `COc1cc2nc(N)n3nc([C@@H]4CCCN(c5cnn(CCCC(C)=O)c5)C4)nc3c2cc1F` [Example 93, (R)-5-(4-(3-(5-amino-9-fluoro-8-methoxy-[1,2,4]triazolo[1,5-c]quinazolin-2-yl)piperidin-1-yl)-1H-pyrazol-1-yl)pentan-2-one], the IC50 was 5.8 nM in assay [1] and 315 nM in assay [2].
In the case of `COc1cc(F)cc2c1nc(N)n1nc([C@@H]3CCCN(c4cnn(C)c4)C3)nc21` [Example 100, (R)-9-fluoro-7-methoxy-2-(1-(1-methyl-1H-pyrazol-4-yl)piperidin-3-yl)-[1,2,4]triazolo[1,5-c]quinazolin-5-amine], the 50% inhibitory concentration (IC50) in assay [1] turned out to be 1.4 nM; in assay [2], 4.8 nM.
For the compound `COc1cc2nc(N)n3nc([C@@H]4CC[C@H](C)N(c5cnn(CC(C)(C)O)c5)C4)nc3c2cc1F` [Example 109, 1-(4-((2S,5R)-5-(5-amino-9-fluoro-8-methoxy-[1,2,4]triazolo[1,5-c]quinazolin-2-yl)-2-methylpiperidin-1-yl)-1H-pyrazol-1-yl)-2-methylpropan-2-ol], the IC50 in assay [1] turned out to be 0.7 nM; in assay [2] it was 7.8 nM.
On the same counts, the results for `C[C@H]1CC[C@@H](c2nc3c4cc(F)c(Cl)cc4nc(N)n3n2)CN1c1cnn(CC(C)(C)O)c1` [Example 110, 1-(4-((2S,5R)-5-(5-amino-8-chloro-9-fluoro-[1,2,4]triazolo[1,5-c]quinazolin-2-yl)-2-methylpiperidin-1-yl)-1H-pyrazol-1-yl)-2-methylpropan-2-ol] are 0.2 nM and 1.8 nM.
Taken in the same sequence, the figures for `C[C@H]1CC[C@@H](c2nc3c4cc(F)cc(F)c4nc(N)n3n2)CN1c1cnn(CC(C)(C)O)c1` [Example 111, 1-(4-((2S,5R)-5-(5-amino-7,9-difluoro-[1,2,4]triazolo[1,5-c]quinazolin-2-yl)-2-methylpiperidin-1-yl)-1H-pyrazol-1-yl)-2-methylpropan-2-ol] were 0.7 nM and 16.5 nM.
On the same counts, the results for `Cc1cc2nc(N)n3nc([C@@H]4CC[C@H](C)N(c5cnn(CC(C)(C)O)c5)C4)nc3c2cc1F` [Example 112, 1-(4-((2S,5R)-5-(5-amino-9-fluoro-8-methyl-[1,2,4]triazolo [1,5-c]quinazolin-2-yl)-2-methylpiperidin-1-yl)-1H-pyrazol-1-yl)-2-methylpropan-2-ol] are 0.4 nM and 7.9 nM.
For the compound `Cn1cc(N2CCC[C@@H](c3nc4c5cc(Cl)cc(Cl)c5nc(N)n4n3)C2)cn1` [Example 113, (R)-7,9-dichloro-2-(1-(1-methyl-1H-pyrazol-4-yl)piperidin-3-yl)-[1,2,4]triazolo[1,5-c]quinazolin-5-amine], the IC50 in assay [1] came to 58.1 nM; in assay [2], 470 nM.
Taken in the same sequence, the figures for `COc1cc2nc(N)n3nc([C@@H]4CCCN(c5cn(CS(C)(=O)=O)nc5C)C4)nc3c2cc1F` [Example 129, (R)-9-fluoro-8-methoxy-2-(1-(3-methyl-1-((methylsulfonyl)methyl)-1H-pyrazol-4-yl)piperidin-3-yl)-[1,2,4]triazolo[1,5-c]quinazolin-5-amine] were 4.1 nM and 470 nM.
Taken in the same sequence, the figures for `COc1cc2nc(N)n3nc([C@@H]4CCCN(c5cnn(CS(C)(=O)=O)c5C)C4)nc3c2cc1F` [Example 130, (R)-9-fluoro-8-methoxy-2-(1-(5-methyl-1-((methylsulfonyl)methyl)-1H-pyrazol-4-yl)piperidin-3-yl)-[1,2,4]triazolo[1,5-c]quinazolin-5-amine] were 1.2 nM and 78.7 nM.
On the same counts, the results for `COc1cc2nc(N)n3nc([C@@H]4CCCN(c5cnn(CS(C)(=O)=O)c5)C4)nc3c2cc1F` [Example 131, (R)-9-fluoro-8-methoxy-2-(1-(1-((methylsulfonyl)methyl)-1H-pyrazol-4-yl)piperidin-3-yl)-[1,2,4]triazolo[1,5-c]quinazolin-5-amine] are 11.8 nM and 66 nM.
For the compound `COc1cc2nc(N)n3nc([C@@H]4CCCN(c5cn(CS(C)(=O)=O)nc5C(F)F)C4)nc3c2cc1F` [Example 132, (R)-2-(1-(3-(difluoromethyl)-1-((methylsulfonyl)methyl)-pyrazol-4-yl)piperidin-3-yl)-9-fluoro-8-methoxy-[1,2,4]triazolo[1,5-c]quinazolin-5-amine], the IC50 in assay [1] was found to be 6.7 nM; in assay [2] it was 243 nM.
On the same counts, the results for `COc1cc2nc(N)n3nc([C@H]4CN(c5cn(CC(C)(C)O)nc5C)CCO4)nc3c2cc1F` [Example 140, (R)-1-(4-(2-(5-amino-9-fluoro-8-methoxy-[1,2,4]triazolo[1,5-c]quinazolin-2-yl)morpholino)-3-methyl-1H-pyrazol-1-yl)-2-methylpropan-2-ol] are 0.8 nM and 2720 nM.
Taken in the same sequence, the figures for `COc1cc2nc(N)n3nc([C@H]4CN(c5cnn(CC(C)(C)O)c5C)CCO4)nc3c2cc1F` [Example 141, (R)-1-(4-(2-(5-amino-9-fluoro-8-methoxy-[1,2,4]triazolo[1,5-c]quinazolin-2-yl)morpholino)-5-methyl-1H-pyrazol-1-yl)-2-methylpropan-2-ol] were 24.1 nM and 1760 nM.

The record behind these values is patent US11312719B2, “9-substituted amino triazolo quinazoline derivatives as adenosine receptor antagonists, pharmaceutical compositions and their use” (Merck Sharp & Dohme Corp., priority 2018, dated 2022).
